Experimental data: PMC10497752, “Heparins are potent inhibitors of ectonucleotide pyrophosphatase/phospho-diesterase-1 (NPP1) – a promising target for the immunotherapy of cancer” (Frontiers in Immunology, 2023)
Read-outs that look alike come from different tables or passages of the source.

What was measured:
[1] = molecular target: T1, human CD73 (Homo sapiens, UniProt P21589); experiment: CD73 radioactive assay, [2,8-3H]AMP; assay type: biochemical; conditions: 20 µg/mL (12 µM)
T1 sequence (P21589 27-574): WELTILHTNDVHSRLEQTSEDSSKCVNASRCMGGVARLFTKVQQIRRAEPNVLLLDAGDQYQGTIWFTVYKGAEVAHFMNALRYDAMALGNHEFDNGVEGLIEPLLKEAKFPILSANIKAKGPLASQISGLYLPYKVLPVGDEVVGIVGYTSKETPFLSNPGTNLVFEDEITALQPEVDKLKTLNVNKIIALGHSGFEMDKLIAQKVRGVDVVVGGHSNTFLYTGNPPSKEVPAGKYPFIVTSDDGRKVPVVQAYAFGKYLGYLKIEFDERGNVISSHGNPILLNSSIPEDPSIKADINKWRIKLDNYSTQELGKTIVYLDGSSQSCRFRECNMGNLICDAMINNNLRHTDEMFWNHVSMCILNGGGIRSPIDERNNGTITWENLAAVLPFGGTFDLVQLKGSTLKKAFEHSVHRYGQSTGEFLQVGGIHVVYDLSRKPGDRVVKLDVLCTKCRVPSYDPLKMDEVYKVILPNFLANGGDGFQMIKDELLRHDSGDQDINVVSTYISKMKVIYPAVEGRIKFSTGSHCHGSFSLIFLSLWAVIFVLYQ
Procedure: The assay was performed essentially as previously described ([32]). The enzymatic reaction was performed by mixing 0.36 ng of human CD73 ([33]) with test compound in assay buffer (25 mM Tris, 140 mM sodium chloride, 25 mM sodium dihydrogen phosphate, pH 7.4) and 5 µM of [2,8-^3H]AMP [(specific activity 7.4x10^8 Bq/mmol (20 mCi/mmol)), American Radio-labeled Chemicals, MO, USA, distributed by Hartmann Analytic, Germany]. Compound 7 was used at 800 µg/mL and compound 6 at 20 µg/mL for the selectivity test, while for initial screening compound 5 was tested at a concentration of 55 µM and 6 at 30 µM, and 1 and 2 were tested at 50 IU/mL ( Supplementary Figure 1 ). The enzymatic reaction was performed for 25 min at 37°C in a shaking water bath. Then, 500 µL of cold precipitation buffer (100 mM lanthanum chloride, 100 mM sodium acetate, pH 4.00) was added to stop the reaction and to facilitate precipitation of free phosphate and unconverted [2,8-^3H]-AMP. […] After washing each reaction vial three times with 400 µL of cold (4°C) demineralized water, 5 mL of the scintillation cocktail (ULTIMA Gold XR, PerkinElmer, MA, USA) was added and the radioactivity was measured by scintillation counting (TRICARB 2900 TR, Packard/PerkinElmer; counting efficacy: 49-52%). […]

[2] = molecular target: T2, human NPP1 (Homo sapiens, UniProt P22413); experiment: NPP1 assay, capillary electrophoresis (CE)-based, ATP as substrate; assay type: biochemical; conditions: for IC50: human NPP1, 400 µM ATP, CE assay
T2 construct: human recombinant soluble NPP1 (Val191 - Leu591) expressed in murine myeloma NS0 cells; His-tag (N); purchased R&D Systems GmbH (Wiesbaden, Germany); host or cells: murine myeloma NS0 cells
T2 sequence (P22413 191-591): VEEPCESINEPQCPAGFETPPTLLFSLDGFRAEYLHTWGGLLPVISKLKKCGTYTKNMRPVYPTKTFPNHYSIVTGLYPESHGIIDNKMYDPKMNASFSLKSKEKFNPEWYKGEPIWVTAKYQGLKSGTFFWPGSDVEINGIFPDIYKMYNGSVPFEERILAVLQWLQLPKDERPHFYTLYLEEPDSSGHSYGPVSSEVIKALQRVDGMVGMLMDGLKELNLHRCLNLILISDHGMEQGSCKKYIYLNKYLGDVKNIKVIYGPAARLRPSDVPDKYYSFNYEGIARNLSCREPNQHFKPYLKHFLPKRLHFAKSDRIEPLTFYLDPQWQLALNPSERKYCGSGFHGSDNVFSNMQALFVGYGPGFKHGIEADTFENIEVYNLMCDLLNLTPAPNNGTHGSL
Procedure: Concentration-inhibition curves of the test compounds at human NPP1 were performed with ATP as substrate at a final concentration of 400 μM. Several different dilutions of the test compounds were prepared in assay buffer (10 mM N-cyclohexyl-2-aminoethanesulfonic acid (CHES), 2 mM CaCl2, 1 mM MgCl2, pH 9.00) and incubated with 20 ng of human recombinant soluble NPP1 (Val191 - Leu591) expressed in murine myeloma NS0 cells obtained from R&D Systems GmbH (Wiesbaden, Germany, purity 95%, purified by using an N-terminal His-tag). For initial screening and selectivity analysis, NPP1 prepared as previously described ([20]), diluted in assay buffer, was used. The mixture of enzyme, substrate and test compound or buffer without test compound was incubated for 30 min at 37°C, and the reaction was terminated by heating at 90°C for 5 min. Capillary electrophoresis (CE) analysis was carried out to analyze the formation of the product. Data collection and peak area analysis were performed by the P/ACE MDQ software 32 KARAT obtained from Beckman Coulter (Fullerton, CA, USA). A polyacrylamide-coated capillary was used [30 cm (20 cm effective length) × 50 μm (id) × 360 μm (od) purchased from Chromatographie Service GmbH (Langerwehe, Germany)]. Samples were injected electro-kinetically by applying a voltage of -6 kV for 30 s. Finally, analytes were separated by applying a separation voltage of -20 kV, and detected by UV at 260 nm. The IC50 values were determined by nonlinear curve fitting using the GraphPad Prism Software 7.0. The mechanism of inhibition at human NPP1 was determined employing different concentrations of the investigated compounds 6 (at 0, 0.4, 4.0 µM), and 7 (at 0, 0.4 and 40 µM) versus four different substrate concentrations ranging from 50 to 500 μM of ATP. The assay procedure and operation conditions were the same as described above. The experiment was conducted twice, each in triplicates. A Lineweaver-Burk was calculated using GraphPad Prism 7.0 for predicting the inhibition type of the compound.

CO[C@H]1O[C@H](COS(=O)(=O)O)[C@@H](O[C@@H]2O[C@@H](C(=O)O)[C@@H](O[C@H]3O[C@H](COS(=O)(=O)O)[C@@H](O[C@@H]4O[C@H](C(=O)O)[C@@H](O[C@H]5O[C@H](COS(=O)(=O)O)[C@@H](O)[C@H](O)[C@H]5NS(=O)(=O)O)[C@H](O)[C@H]4O)[C@H](OS(=O)(=O)O)[C@H]3NS(=O)(=O)O)[C@H](O)[C@H]2OS(=O)(=O)O)[C@H](O)[C@H]1NS(=O)(=O)O [Compound 6, Fondaparinux] was tested, and the “CD73 inhibition, selectivity study” value [1] was “no effect”, the “inhibition type at human NPP1” value ([2]; Lineweaver-Burk plots, ATP 50-500 µM) was “mixed-type” and the IC50 ([2]; read-out: IC50 ± SD (µg/ml) (converted)) was 3.31 µM. The IC50 ([2]; values of 1 and 2 estimated (1 IU = 0.002 mg; mean 16.5 kDa for heparin-sodium), read-out: IC50 ± SD) was 2.94 ± 0.61 µM.
